Data as given in patent publication US9850293B2, “Targeting trastuzumab-resistant HER2+ breast cancer with a HER3-targeting nanoparticle” (priority 2014, dated 2017).
Entries after “also recorded” stand apart in the source; their conditions may differ.

How the values were obtained:
[1] = Neutralizing antibody formation after repeat dosing; type: in vivo, mouse; conditions: repeat dosing at therapeutic and 10-fold higher levels, immunocompetent mice
From the text: Therefore, receptor binding is not inhibited by patient sera.

MDA-MB-435 cells = test: HerPBK10 binding to cells in human serum (ELISA); conditions: 1.2 μg/well, sera of 5 HER2+ patients and age-matched controls
Description: FIG. 16 illustrates HerPBK10 binding to MDA-MB-435 cells in human serum from HER2+ or HER2− breast cancer patients. Cells were treated with HerPBK10 (1.2 μg/well) in media containing human serum from each of 5 HER2+ breast cancer patients or age matched HER2− controls, both obtained pre-chemotherapy treatment. Cells were processed for ELISA using an antibody directed at HerPBK10. Control (C) wells receiving HerPBK10 in media containing bovine serum without or with 100× molar excess competitive ligand inhibitor (+Her) are indicated by open bars. Patient sera were provided by the WCRI tissue bank at Cedars-Sinai Medical Center. N=3 wells per treatment.
To determine whether HerPBK10 competes with circulating ligand that may be present in serum, the inventors tested HerPBK10 binding to HER2+ breast cancer cells in human serum obtained from HER2+ patients. The Women's Cancer Research Institute at Cedars-Sinai occasionally acquires limited quantities of patient serum, of which sera from HER2+ patients comprises an even smaller minority. […] Here, the inventors replaced the bovine serum in the routine culturing media with the human serum obtained from the acquired patient samples to assess whether the human serum, especially from HER2+ patients, inhibits cell binding. […]

MDA-MB-435 (HER2+) = test: Targeted toxicity, cell survival by MTT assay; type: cell-based, human; conditions: Dox 0.5 μM; HerPBK10 0.1 μM; day 3
Description: (§1) FIG. 7 illustrates targeted toxicity. […] Cell titer was determined by metabolic (i.e. MTT) assay. FIG. 7 upper panel illustrates the effect of HerDox on MDA-MB-231 (HER2−) and MDA-MB-435 (HER2+) cell survival. Relative surviving cell numbers are represented as a % of corresponding untreated cells. […] Relative survival (as % of untreated cells) is shown for Day 3 of treatment.
FIG. 8 illustrates receptor specificity. MDA-MB-435 (HER2+) cells were incubated with free ligand (eHRG) at 10× molar excess of HerDox for one hour at 4° C. Media was aspirated to remove free eHRG and fresh media containing HerDox (0.5 μM) was added to cells. Cell survival was measured by MTT assay and represented as a % of relative untreated cell numbers.
(§2) N=3. […] Bar, about 4 μm. […] (E) compares HerDox and Dox on off-target tissue. […] Green fluorescence in nuclei indicates apoptosis (positive TUNEL stain).
(§3) By three days, HerDox reduced HER2+ cell numbers by over 75% whereas HER2− cell survival was unaffected (FIG. 7). […] These findings emphasize the importance of targeting by showing that the untargeted drug affects nontarget (i.e. HER2−) cells. […] To test receptor targeting, the inventors used free heregulin ligand (Her or eHRG) as a competitive inhibitor. […] As a final in vitro challenge, the inventors tested whether HerDox induces toxicity specifically to HER2+ cells in a mixed culture of HER2+ and HER2− breast cancer cells. To do this, the inventors produced a HER2− cell line tagged with green fluorescent protein (GFP) for cell identification in the mixed culture (FIG. 9-A). […] Altogether, these findings indicate that HerDox has the capacity to preferentially target toxicity to HER2+ cells. […] In serum-containing media, no such loss from HerDox is detectable. […] Co-migration of HerPBK10 bands further verified that the conjugates remained intact in the cell media.

HER2+ MDA-MB-435 cells = test: Cell uptake (fluorescence confocal microscopy); type: cell-based, human; conditions: after cell surface clustering
Description: (§4) (A) compares biodistribution and intracellular trafficking of HerPBK10 and Tz.
The uptake in HER2+ MDA-MB-435 cells were also evaluated.

[2] = tested on: human cardiosphere-derived cells (CDCs); test: Human CDC viability; conditions: escalating concentrations, 48 hour exposure
Description: Control groups received saline or HerPBK10 at equivalent concentration to HerMn. Treatments began at ˜200 mm^3 average tumor volume. Tumor volumes were measured before (day 1), during (day 3), and after (days 8, 15, and 22) injections of reagents. N=8-10 tumors/group. *p<0.05 (one-way ANOVA). […] N=3 per conc, from 3 separate experiments.
To assess translatability, the viability of human cardiosphere-derived cells (CDCs) in the presence of HerGa and/or HerMn was examined.

[3] = tested on: primary tumor cells from a surgical specimen of a HER2+ patient; test: Binding to primary human tumor cells; conditions: elevated HER3, very low HER2
Description: (§5) N=3. *, p<0.05 compared to parental. […] N=3. *, p<0.05 compared to parental.
(§6) Parental lines were exposed to Tz for 24 hours and then measured cell surface HER3 levels in comparison to non-treated parental cells. […] As a means of evaluating whether the nanoparticles described herein are capable of recognizing HER3 on human tissue, breast tumor tissue was obtained from a surgical specimen of a HER2+ patient and examined whether HerPBK10 could bind this tissue via HER3.

[4] = tested on: HER3 on parental cell lines (BT474 and SKBR3); test: Tz pre-treatment: cell surface HER3 and HerPBK10 binding; type: cell-based, human; conditions: 0.5 mg/mL Tz for 24 hours
Description: N=3. […] N=3. […] N=3. […] N=3. […] N=3. […] N=3.
as §5
The parental and resistant cell lines were pretreated with Tz for 4 or 24 hours before HerDox treatment.
as §6

HER2+ cells = test: ELISA of HerPBK10 binding to HER2+ cells with competitive inhibitors
From the text: (§7) Un, no HerPBK10. […] HerPBK10 binding to HER3 is not inhibited by patient serum.
(§8) Binding was also not inhibited by a HER4 peptide or betacellulin (which blocks HER4) (FIG. 26-B).

[5] = tested on: HER3 on 4T1 mouse mammary tumor cells; test: Binding of HerPBK10 to mouse mammary tumor cells
From the text: (A) is an amino acid sequence alignment of domains I-II (heregulin-binding domain) of human (SEQ ID NO:13) and mouse HER3 (SEQ ID NO:14). (B) compares relative HER3 levels on different cell lines, detected by ELISA (without permeabilization) using an anti-HER3 antibody that cross-reacts with both human and mouse HER3 (1B2E; Cell Signaling Technologies). […] N=3. *, p<0.05 compared to HerPBK10 alone.
Mouse 4T1 cells, obtained from a BALB/c mouse mammary tumor, are triple-negative and have been used as a syngeneic TNBC model in BALB/c mice. […] The receptor-specific binding of HerPBK10 to mouse HER3 reflects the high level of amino acid sequence identity between mouse and human HER3: 91% identity for the entire protein and 94% in the heregulin-binding region (extracellular domains I and II) (FIG. 32-A). […] Importantly, human BT-549 cells, which are also derived from a TNBC, display elevated HER3 on the cell surface (FIG. 32-B) and provide an additional TNBC cell line to target.

[6] = target: T1, HER3 (human ErbB3 extracellular domain) (Homo sapiens, UniProt P21860); test: ELISA of HerPBK10 binding to immobilized HER3
T1 construct: immobilized peptide containing the extracellular domain of human HER3; purchased Prospec
From the text: as §7, §8

HER2+ tumor = test: Biodistribution of labeled HerPBK10, Tz and BSA; type: in vivo, mouse; conditions: tail vein, four hours after injection
Description: as §4
Fluorescently-labeled HerPBK10 was prepared to assess its bio-distribution and cell uptake in comparison to labeled Tz. Equivalent doses of each reagent were injected into the tail veins of HER2+ tumor bearing mice. Tissues were harvested at four hours after injection for imaging. Both reagents were compared to a labeled non-targeted protein, BSA.

[7] = tested on: HER2+ tumors (MDA-MB-435); test: In vivo tumor toxicity (tumor growth); design: species or system mouse; conditions: 0.004 mg/kg with respect to Dox, daily tail vein injections for 7 days
MDA-MB-231 (HER2−) = test: Targeted toxicity, cell survival by MTT assay; type: cell-based, human; conditions: 0.5 μM with respect to Dox; HerPBK10 0.1 μM; day 3
Description: as §1, §2, §3

## HerPBK10: receptor binding domain of heregulin fused to adenovirus penton base protein modified by a C-terminal decalysine
[1]
  neutralizing antibody formation against the protein: did not yield detectable neutralizing antibody formation
MDA-MB-435 cells
  cell binding in serum from HER2+ patients, HER2− patients or bovine serum: no significant differences; also recorded: did not prevent HerPBK10 binding
MDA-MB-435 (HER2+)
  effect on HER2+ cell survival: had no effect on either cell line; also recorded: does not induce cell death
HER2+ MDA-MB-435 cells
  time to significant endocytosis: ≤ 45 min
[2]
  effect on CDC viability: no detectable effect on CDC viability
[3]
  binding to disaggregated patient tumor cells: exhibiting greater binding than Tz; also recorded: showing greater binding than Tz
[4]
  HerPBK10 binding to Tz pre-treated parental cells: augments HerPBK10 binding; also recorded: proportionately increased
HER2+ cells
  binding to HER2+ cells with pertuzumab (Pz): did not prevent HerPBK10 binding
HER2+ cells; 1× and 10× molar ratio
  binding to HER2+ cells after pre-adsorption with free HER3 peptide: also inhibited HerPBK10 binding
HER2+ cells; betacellulin 10 μg/mL
  binding to HER2+ cells with HER4 peptide or betacellulin: not inhibited
[5]
  binding to 4T1 cells with human HER3 peptide: competitively inhibited by human HER3 peptide
  recognition of HER3 on 4T1 cells: is recognized by HerPBK10
[6]
  binding to immobilized HER3 after pre-adsorption with free HER3 peptide: inhibited by pre-adsorption of HerPBK10 with free HER3 peptide
  binding to immobilized HER3 peptide: binds to an immobilized peptide containing the extracellular domain of human HER3
HER2+ tumor
  delivery to the heart, spleen, and muscle: nearly absent delivery
  lung delivery: no lung delivery
  tumor accumulation: equivalent levels of tumor accumulation
[7]
  effect on tumor growth: had no effect
MDA-MB-231 (HER2−)
  effect on HER2− cell survival: had no effect on either cell line
